Assays:
wild-type EGFR = target: T1, wild-type EGFR (Homo sapiens, UniProt P00533); assay: In vitro EGFR inhibition assay, wild type; assay type: biochemical; details: read-out: EGFR^WT IC50
T1 construct: purchased AssayQuant Technologies, Inc. (Marlboro, MA, USA)

[1] = target: T2, double mutant EGFR^L858R/T790M (Homo sapiens, UniProt P00533, L858R/T790M); assay: In vitro EGFR inhibition assay, double mutant; assay type: biochemical; details: for IC50: double mutant EGFR; for Selectivity (SI): ratio of the IC50 values EGFR^WT/EGFR^L858R/T790M
T2 construct: purchased AssayQuant Technologies, Inc. (Marlboro, MA, USA)

[2] = system: LPS-induced IL-6 production in RAW 264.7 cells; assay: IL-6 production in LPS-activated RAW 264.7 cells (ELISA); assay type: cell-based; details: LPS-activated RAW 264.7 cells treated with 25 µM of the compound
[3] = Cell viability assay against normal cell line (MTS); assay type: cell-based; details: mouse, RAW 264.7 cells, concentrations up to 50 μM, read-out: cell viability percentage of the control values
Method: To evaluate the possible non-selective cytotoxic effect of the investigated compounds (6a, 6c, 6d, 6e, 6j, 6l, 6m, 6n, 6o, and 6p) on normal cells, their effect on RAW 264.7 cells viability was assessed at different concentrations (12.5, 25, 50, and 100 µM). Cell viability was measured using 3-(4,5-dimethylthiazol-2-yl)-5-(3-carboxymethoxyphenyl)-2-(4 sulfophenyl)-2H-tetrazolium (MTS) assay (Promega, Madison, Wisconsin) according to the manufacturer’s instructions.

HL-60(TB) = assay: NCI single dose screen, HL-60(TB); assay type: cell-based; details: Homo sapiens, leukaemia, single dose 10^−5 M, read-out: growth inhibition percentage
Method: (§1) Screening of the anticancer activity of the newly synthesised compounds (6a, 6c, 6d, 6e, 6j, 6l, 6m, 6n, 6o, and 6p) was performed by the US National Cancer Institute (NCI) using 60 different human tumour cell lines in accordance with standard procedures formerly reported.
(§2) In vitro anticancer screening was carried out for the selected compounds at a single dose (10^−5 M) against 60 different human tumour cell lines of nine different cancer cell types: leukaemia, lung, colon, CNS, melanoma, ovarian, renal, prostate, and breast cancers.

SR = assay: NCI single dose screen, SR; assay type: cell-based; details: Homo sapiens, leukaemia, single dose 10^−5 M, read-out: growth inhibition percentage
Method: as §1, §2

EKVX = assay: NCI single dose screen, EKVX; assay type: cell-based; details: Homo sapiens, non-small cell lung cancer, single dose 10^−5 M, read-out: growth inhibition percentage
Method: as §1, §2

NCI-H522 = assay: NCI single dose screen, NCI-H522; assay type: cell-based; details: Homo sapiens; NCI-H522, non-small cell lung cancer; single dose 10^−5 M; read-out: growth inhibition percentage
Method: as §1, §2

HCC-2998 = assay: NCI single dose screen, HCC-2998; assay type: cell-based; details: Homo sapiens; HCC-2998, colon cancer; single dose 10^−5 M; read-out: growth inhibition percentage
Method: as §1, §2

U251 = assay: NCI single dose screen, U251; assay type: cell-based; details: Homo sapiens, U-251; U251, CNS cancer; single dose 10^−5 M; read-out: growth inhibition percentage
Method: as §1, §2

MALME-3M = assay: NCI single dose screen, MALME-3M; assay type: cell-based; details: Homo sapiens, melanoma, single dose 10^−5 M, read-out: growth inhibition percentage
Method: as §1, §2

M14 = assay: NCI single dose screen, M14; assay type: cell-based; details: Homo sapiens; M14, melanoma; single dose 10^−5 M; read-out: growth inhibition percentage
Method: as §1, §2

SK-MEL-28 = assay: NCI single dose screen, SK-MEL-28; assay type: cell-based; details: Homo sapiens; SK-MEL-28, melanoma; single dose 10^−5 M; read-out: growth inhibition percentage
Method: as §1, §2

UACC-62 = assay: NCI single dose screen, UACC-62; assay type: cell-based; details: Homo sapiens; UACC-62, melanoma; single dose 10^−5 M; read-out: growth inhibition percentage
Method: as §1, §2

OVCAR-3 = assay: NCI single dose screen, OVCAR-3; assay type: cell-based; details: Homo sapiens; OVCAR-3, ovarian cancer; single dose 10^−5 M; read-out: growth inhibition percentage
Method: as §1, §2

OVCAR-4 = assay: NCI single dose screen, OVCAR-4; assay type: cell-based; details: Homo sapiens; OVCAR-4, ovarian cancer; single dose 10^−5 M; read-out: growth inhibition percentage
Method: as §1, §2

OVCAR-8 = assay: NCI single dose screen, OVCAR-8; assay type: cell-based; details: Homo sapiens; OVCAR-8, ovarian cancer; single dose 10^−5 M; read-out: growth inhibition percentage
Method: as §1, §2

786-0 = assay: NCI single dose screen, 786-0; assay type: cell-based; details: Homo sapiens; 786-0, renal cancer; single dose 10^−5 M; read-out: growth inhibition percentage
Method: as §1, §2

A498 = assay: NCI single dose screen, A498; assay type: cell-based; details: Homo sapiens; A498, renal cancer; single dose 10^−5 M; read-out: growth inhibition percentage
Method: as §1, §2

CAKI-1 = assay: NCI single dose screen, CAKI-1; assay type: cell-based; details: Homo sapiens; CAKI-1, renal cancer; single dose 10^−5 M; read-out: growth inhibition percentage
Method: as §1, §2

RXF 393 = assay: NCI single dose screen, RXF 393; assay type: cell-based; details: Homo sapiens; RXF 393, renal cancer; single dose 10^−5 M; read-out: growth inhibition percentage
Method: as §1, §2

TK-10 = assay: NCI single dose screen, TK-10; assay type: cell-based; details: Homo sapiens; TK-10, renal cancer; single dose 10^−5 M; read-out: growth inhibition percentage
Method: as §1, §2

DU-145 = assay: NCI single dose screen, DU-145; assay type: cell-based; details: Homo sapiens; DU-145, prostate cancer; single dose 10^−5 M; read-out: growth inhibition percentage
Method: as §1, §2

MDA-MB-231/ATCC = assay: NCI single dose screen, MDA-MB-231/ATCC; assay type: cell-based; details: Homo sapiens, breast cancer, single dose 10^−5 M, read-out: growth inhibition percentage
Method: as §1, §2

T2 sequence (P00533 25-1210 T790M/L858R): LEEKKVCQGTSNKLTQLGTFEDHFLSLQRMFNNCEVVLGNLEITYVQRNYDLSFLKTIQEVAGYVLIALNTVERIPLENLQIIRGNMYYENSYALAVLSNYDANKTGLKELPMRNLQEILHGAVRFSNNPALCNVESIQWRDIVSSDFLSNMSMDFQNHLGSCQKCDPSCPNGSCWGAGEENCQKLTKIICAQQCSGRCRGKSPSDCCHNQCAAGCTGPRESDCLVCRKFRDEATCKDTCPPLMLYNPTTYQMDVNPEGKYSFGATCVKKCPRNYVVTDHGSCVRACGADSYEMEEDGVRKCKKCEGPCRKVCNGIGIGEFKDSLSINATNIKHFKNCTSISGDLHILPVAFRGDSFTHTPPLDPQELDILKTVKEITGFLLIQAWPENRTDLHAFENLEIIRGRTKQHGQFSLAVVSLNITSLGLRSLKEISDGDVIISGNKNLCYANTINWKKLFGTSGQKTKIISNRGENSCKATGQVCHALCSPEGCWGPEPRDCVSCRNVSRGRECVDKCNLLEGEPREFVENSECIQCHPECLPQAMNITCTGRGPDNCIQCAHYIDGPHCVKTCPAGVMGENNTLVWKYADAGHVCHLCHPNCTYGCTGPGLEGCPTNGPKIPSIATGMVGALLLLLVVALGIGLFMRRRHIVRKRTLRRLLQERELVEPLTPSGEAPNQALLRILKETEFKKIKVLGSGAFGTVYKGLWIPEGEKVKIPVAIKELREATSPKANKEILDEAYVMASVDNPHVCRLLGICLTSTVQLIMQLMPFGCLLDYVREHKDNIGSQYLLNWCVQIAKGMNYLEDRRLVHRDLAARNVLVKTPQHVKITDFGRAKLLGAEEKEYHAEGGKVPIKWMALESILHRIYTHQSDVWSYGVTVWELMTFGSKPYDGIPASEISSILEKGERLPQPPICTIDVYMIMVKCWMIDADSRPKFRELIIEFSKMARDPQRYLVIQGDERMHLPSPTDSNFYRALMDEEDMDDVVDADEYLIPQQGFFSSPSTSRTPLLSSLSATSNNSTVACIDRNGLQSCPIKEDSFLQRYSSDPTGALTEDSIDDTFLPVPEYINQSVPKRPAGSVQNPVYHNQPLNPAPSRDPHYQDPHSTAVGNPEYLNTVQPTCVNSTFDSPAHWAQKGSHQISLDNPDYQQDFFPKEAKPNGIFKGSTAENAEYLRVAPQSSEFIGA
T1 sequence (P00533 25-1210): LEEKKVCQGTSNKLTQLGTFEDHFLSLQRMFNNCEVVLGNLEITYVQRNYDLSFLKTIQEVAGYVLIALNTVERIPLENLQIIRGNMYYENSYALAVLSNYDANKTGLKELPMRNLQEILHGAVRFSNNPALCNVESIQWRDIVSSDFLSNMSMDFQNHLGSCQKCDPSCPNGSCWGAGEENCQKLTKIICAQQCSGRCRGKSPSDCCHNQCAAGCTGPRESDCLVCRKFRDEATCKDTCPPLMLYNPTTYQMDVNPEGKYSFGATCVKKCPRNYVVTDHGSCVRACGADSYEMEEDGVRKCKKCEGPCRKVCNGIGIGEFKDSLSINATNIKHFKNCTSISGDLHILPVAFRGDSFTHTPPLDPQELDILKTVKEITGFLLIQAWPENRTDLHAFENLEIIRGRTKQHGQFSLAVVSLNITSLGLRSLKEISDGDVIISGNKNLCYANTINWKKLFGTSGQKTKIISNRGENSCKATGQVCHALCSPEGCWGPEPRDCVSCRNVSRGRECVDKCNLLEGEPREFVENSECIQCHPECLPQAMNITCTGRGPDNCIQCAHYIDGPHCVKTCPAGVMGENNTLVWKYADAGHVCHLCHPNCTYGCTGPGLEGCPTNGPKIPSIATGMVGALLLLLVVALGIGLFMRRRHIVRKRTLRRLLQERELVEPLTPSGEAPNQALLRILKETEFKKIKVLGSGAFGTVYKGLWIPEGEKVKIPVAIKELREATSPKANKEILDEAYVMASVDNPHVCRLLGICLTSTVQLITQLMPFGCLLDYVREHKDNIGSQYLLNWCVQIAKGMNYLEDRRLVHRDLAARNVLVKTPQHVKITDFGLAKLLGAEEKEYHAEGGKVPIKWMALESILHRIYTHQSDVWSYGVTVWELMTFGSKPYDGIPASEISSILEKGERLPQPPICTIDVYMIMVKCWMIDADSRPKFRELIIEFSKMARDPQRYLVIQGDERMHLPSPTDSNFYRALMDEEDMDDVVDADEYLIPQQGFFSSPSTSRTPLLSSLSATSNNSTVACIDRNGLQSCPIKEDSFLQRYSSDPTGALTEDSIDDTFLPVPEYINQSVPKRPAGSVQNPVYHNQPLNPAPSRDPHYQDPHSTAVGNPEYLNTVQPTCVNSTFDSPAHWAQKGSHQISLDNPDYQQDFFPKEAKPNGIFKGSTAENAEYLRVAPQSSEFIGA

SMILES	IC50 (wild-type EGFR) [µM]	IC50 [1] [µM]	IL-6 concentration [2] [pg/mL]	viability [3] [%]	inhibition at 10 µM (HL-60(TB)) [%]	inhibition at 10 µM (SR) [%]	inhibition at 10 µM (EKVX) [%]	inhibition at 10 µM (NCI-H522) [%]	inhibition at 10 µM (HCC-2998) [%]	inhibition at 10 µM (U251) [%]	inhibition at 10 µM (MALME-3M) [%]	inhibition at 10 µM (M14) [%]	inhibition at 10 µM (SK-MEL-28) [%]	inhibition at 10 µM (UACC-62) [%]	inhibition at 10 µM (OVCAR-3) [%]	inhibition at 10 µM (OVCAR-4) [%]	inhibition at 10 µM (OVCAR-8) [%]	inhibition at 10 µM (786-0) [%]	inhibition at 10 µM (A498) [%]	inhibition at 10 µM (CAKI-1) [%]	also measured
CN1c2ccccc2C(=O)N(NC(=O)Nc2ccc(F)cc2)C1c1ccccc1 (stereo not shown) [Compound 6m, 1-(4-Fluorophenyl)-3-(1-methyl-4-oxo-2-phenyl-1,4-dihydroquinazolin-3(2H)-yl)urea]	> 100	4.07 ± 3.7	290.7 ± 5.5	> 90	< 10	< 10	10.5	< 10	< 10	< 10	10.8	18.9	< 10	20.7	20.5	10.8	< 10	12.9	< 10	< 10	inhibition at 10 µM (RXF 393): < 10%; inhibition at 10 µM (TK-10): < 10%; inhibition at 10 µM (DU-145): < 10%; inhibition at 10 µM (MDA-MB-231/ATCC): 23%
CN1c2ccccc2C(=O)N(NC(=O)Nc2ccc(F)cc2)C1c1ccc(F)cc1 (stereo not shown) [Compound 6n, 1-(4-Fluorophenyl)-3-(2–(4-fluorophenyl)-1-methyl-4-oxo-1,4-dihydroquinazolin-3(2H)-yl)urea]	> 100	13.5 ± 2.22	535.3 ± 15.25	> 90	< 10	14.4	16.4	< 10	< 10	< 10	17.6	23.2	< 10	38.1	41.9	29.7	< 10	< 10	< 10	25.1	Selectivity (SI) [1]: >7.4; inhibition at 10 µM (RXF 393): < 10%; inhibition at 10 µM (TK-10): < 10%; inhibition at 10 µM (DU-145): < 10%; inhibition at 10 µM (MDA-MB-231/ATCC): 29.8%
COc1ccc(NC(=O)NN2C(=O)c3ccccc3N(C)C2c2ccc(OC)cc2)cc1 (stereo not shown) [Compound 6j, 1-(4-Methoxyphenyl)-3-(2-(4-methoxyphenyl)-1-methyl-4-oxo-1,4-dihydroquinazolin-3(2H)-yl)urea]	> 100	4.03 ± 1.43	164.6 ± 5.09	> 90	< 10	11.6	< 10	< 10	< 10	< 10	< 10	29.6	< 10	< 10	10.2	< 10	< 10	34.2	< 10	< 10	Selectivity (SI) [1]: >24.8; inhibition at 10 µM (RXF 393): < 10%; inhibition at 10 µM (TK-10): < 10%; inhibition at 10 µM (DU-145): < 10%; inhibition at 10 µM (MDA-MB-231/ATCC): < 10%
CN1c2ccccc2C(=O)N(NC(=O)Nc2ccccc2)C1c1ccccc1 (stereo not shown) [Compound 6c, 1-(1-Methyl-4-oxo-2-phenyl-1,4-dihydroquinazolin-3(2H)-yl)-3-phenylurea]	> 100	7.93 ± 1.11	468.4 ± 87.46	> 90	< 10	< 10	< 10	< 10	< 10	< 10	< 10	< 10	< 10	< 10	11.7	< 10	< 10	35.3	< 10	< 10	Selectivity (SI) [1]: >12.6; inhibition at 10 µM (RXF 393): < 10%; inhibition at 10 µM (TK-10): < 10%; inhibition at 10 µM (DU-145): < 10%; inhibition at 10 µM (MDA-MB-231/ATCC): < 10%
CC1N(NC(=O)Nc2ccc(F)cc2)C(=O)c2ccccc2N1C (stereo not shown) [Compound 6l, 1–(1,2-Dimethyl-4-oxo-1,4-dihydroquinazolin-3(2H)-yl)-3-(4-fluorophenyl)urea]	> 100	17 ± 1.4	536.8 ± 3.55	> 90	< 10	< 10	< 10	< 10	< 10	< 10	< 10	< 10	< 10	< 10	16.9	< 10	< 10	< 10	< 10	< 10	Selectivity (SI) [1]: >5.8; inhibition at 10 µM (RXF 393): < 10%; inhibition at 10 µM (TK-10): 15.4%; inhibition at 10 µM (DU-145): < 10%; inhibition at 10 µM (MDA-MB-231/ATCC): < 10%

Reference: PMC10114980, “Triple targeting of mutant EGFR^L858R/T790M, COX-2, and 15-LOX: design and synthesis of novel quinazolinone tethered phenyl urea derivatives for anti-inflammatory and anticancer evaluation” (Journal of Enzyme Inhibition and Medicinal Chemistry, 2023)
